{"source": "patent US11479604B2", "about": "“Immunomodulatory peptides and methods for modulating the immune system in a subject” (Recepta Biopharma S.A., priority 2017, dated 2022)", "key": {"[1]": {"test_system": "B16F10-Nex2 melanoma cells", "experiment": "Syngeneic metastatic melanoma model, lung nodule count", "format": "in vivo, C57BL/6 mice", "settings": "for antitumor activity (pulmonary nodules): alone, Rb9 300 μg 5 consecutive days, Imiquimod 50 μg 3 alternate days, CpG and Poly (I:C) two alternate days; for activity against metastatic melanoma of scramble peptides: 300 μg (10 mg/kg) i.p., alternate days, 5 doses, lungs after 14 days", "experimental": "Male C57BL/6 mice, 6 to 8-week-old were obtained from the Center for Development of Experimental Models (CEDEME), Federal University of Sao Paulo (UNIFESP). For the in vivo metastatic model, C57BL/6 mice received one intravenous (i.v.) injection of 2×10^5 viable B16-F10-Next melanoma cells in 100 μL. […] The control group received 100 μL PBS. Twenty-two days later, mice (minimum n=3 per group) had their lungs harvested, and the number of macroscopic melanotic nodules were counted. The Ethical Committee of Federal University of São Paulo, Project no. 1234, 2011, approved all experiments with animals, according to International guidelines. For the subcutaneous model, mice were injected with 5×10^5 tumor cells suspended in 100 μL of PBS in the right flank via the subcutaneous route. The peptide (300 μg) was solubilized in 10 μL of distilled H2O and 90 μL of PBS and injected per mouse via the intraperitoneal route. The administration of the peptide was performed in 5 alternate days initiating one day after tumor challenge. Tumor longitudinal diameter (D) and transverse diameter (d) were measured every 2 days until the tumor volume reached 3,000 mm3. Animals were sacrificed when the allowed volume was reached. Volume was calculated using the formula v=Dd^2×0.52. Tumor Cell Growth In Vitro and In Vivo Details of the in vitro tumor cell growth, cytotoxicity tests, determination of viable cells and in vivo protection experiments with B16F10 cells in a mouse metastatic model are described in Polonelli et al. (PLoS One. 3(6):e2371, 2008) and Dobroff et al. (Transl. Onc., 3: 204-217, 2010).\n6 to 8 Week-old C57BL/6 mice (n=5, per group) were intravenously challenged with 1×10^5 of syngeneic B16F10-Nex2 viable cells in 0.1 mL of RPMI medium without FBS, and treated on the next day with intraperitoneal doses of 300 μg (10 mg/kg) each, of Scr1, Scr2, Scr3 or Scr4 peptide or with the control vehicle (PBS) in alternate days, total of 5 doses. After 14 days, mice were euthanized, and lungs were harvested and assessed for metastatic colonization. The number of metastatic lesions was quantified using a stereo microscope (Nikon, Tokyo). The percentage of the tumor area/total area was also quantified by ImageJ software.\nB16F10-Nex2 tumor cells (2×10^5) in RPMI (100 μl) were injected in both animal groups in the tail veins on day 0. Animals were sacrificed on day 22, or 10 days after the last administration of the peptide, and their lungs were examined for dark melanotic nodules.\nC57Bl6 mice were intravenously challenged with 4×10^5 syngeneic B16F10-Nex2 cells in 0.1 ml of RPMI without FBS.\nMice were injected with 5×10^5 B16F10-Nex2 cells i.v. suspended in 100 μl PBS. […] Imiquimod at 50 μg/100 μl was injected i.p. in 3 alternate days; CpG ODN 1585, i.p., in two alternate days; and Poly (I:C), i.p., in two alternate days. After 15 days of tumor challenge, the animals were sacrificed, the lungs were removed and the pulmonary nodules were counted."}, "[2]": {"test_system": "LPS stimulated DCs characterized by CD11c+ MHC-II+", "experiment": "Co-stimulatory markers of LPS stimulated murine bone-marrow DCs", "format": "cell-based", "text": "Rb9 immunomodulation of murine bone-marrow dendritic cells (DCs) was also examined focusing on co-stimulatory markers."}, "CD11c+ cells": {"test_system": "CD11c+ cells", "experiment": "TGF-beta1 ELISA of CD11c+ cells from lymphoid organs of melanoma-bearing treated mice", "format": "in vivo, C57Bl6 mice", "settings": "300 μg/dose i.p., day 17", "experimental": "Animals were sacrificed on day 17 and their lungs, cervical and axillary lymph nodes and spleen were processed for examination. Lymph nodes and spleen were macerated separately, DMEM was added and passed through a cell strainer. CD11c+ cells were isolated using mouse CD11c+ beads and magnetic sorting. Cells were suspended in R10 medium and plated in […] at 10^6 cells/well. Cells were incubated for 24 h with or without tumor cell lysate (B16F10 stimulus). The supernatant was used in a TGF-beta1 ELISA test."}, "splenocytes": {"test_system": "splenocytes", "experiment": "Splenocyte cytokine production in melanoma-bearing treated mice (ELISA)", "format": "in vivo", "settings": "300 μg i.p. 5 consecutive days", "experimental": "Mice were challenged with 5×10^5 B16F10-Nex2 cells via the i.v. route. […] Peptides at 300 μg solubilized in 10 μl distilled H2O and 90 μl of PBS were injected via i.p. route per animal, for 5 consecutive days initiating one day after tumor cell challenge. Seventeen days after tumor challenge mice were sacrificed and spleens were removed. Splenocytes after incubation in hemolysis buffer were suspended in R10 medium and plated in 6-well plates and 10^6 cells/well. Cells were incubated for 72 h with or without tumor cell lysate (from 10^5 B16F10-Nex2 cells) in triplicate. The supernatants were collected, and cytokines measured by ELISA (FIG. 11)."}, "[3]": {"test_system": "B16F10-Nex2 melanoma cells", "experiment": "Prophylactic adoptive transfer of peptide-stimulated dendritic cells, metastatic melanoma", "format": "in vivo, syngeneic mice", "settings": "DCs incubated with 50 μg/ml peptide, with or without tumor cell lysate; s.c.; tumor challenge day 14, count day 29", "experimental": "DCs were obtained from the bone marrow of 6 to 8-week-old C57Bl6 mice. Briefly, femora and tibiae from mice were removed and stripped of muscles and tendons; both bone ends were cut, and bone marrow was extracted by placing the bone pieces into 1-ml tips, which in turn were inserted into 15-ml tubes and centrifuged for 10 minutes at 1500 rpm. Cells were resuspended in DMEM and cell clusters were dissociated by repeated pipetting. The total bone marrow cells were cultured in 100-mm treated tissue culture dish in 10 ml of R10 medium (DMEM medium supplemented with 2 mM glutamine, 10,000 U/ml penicillin, 10 mg/ml streptomycin, 50 μM 2-mercaptoethanol, 1 mM sodium pyruvate, MEM-nonessential aminoacids, MEM Vitamin solution, 10% heat-inactivated fetal bovine serum and GM-CSF (20 ng/ml) and IL-4 (40 ng/ml). Fresh medium (3 ml) with GM-CSF (200 ng/ml) and IL-4 (400 ng/ml) was added every 3 days. On day 7, adherent cells, that were harvested using PBS 2 mM EDTA, together with the non-adherent cells were pooled and used as the starting cell source for the experiments. BMDC Protocol 2\nDCs were inoculated s.c. in syngeneic mice. On day 14, mice were inoculated i.v. with melanoma tumor cells (5×10^5 cells) and on day 29, the lung melanotic nodules were counted."}, "[4]": {"test_system": "T lymphocytes of lungs, spleen and lymph nodes", "experiment": "Flow cytometry of Treg, T-CD4+ and T-CD8+ cells after prophylactic DC protocol", "format": "in vivo, mice", "settings": "spleen and lymph nodes (except lungs), day 29, DCs stimulated by peptide", "experimental": "On day 14, mice were inoculated i.v. with B16F10.Nex2 melanoma tumor cells and on day 29, lungs, spleen and cervical and axillary lymph nodes were examined for CD3+ cells, and the proportion of T-CD4+ and T-CD8+ cells.\nThe lungs were incubated with 2 mg/ml of collagenase for 40 min at 37° C. before maceration. The cell suspension was incubated with cold hemolytic buffer for 1 min and then centrifuged. The pellet was suspended with RPMI medium and counted. 1×10^6 Cells of each group were processed and stained using the Treg Detection Kit (Miltenyi Biotec, Cambridge, USA). Lymphocytes were characterized using anti-CD4 (FITC), anti-CD25 (PE) and anti-Foxp3 (APC). Samples were analyzed by flow cytometry using FACSCantoII (Becton Dickinson, San Jose, Calif., USA). Acquired data were analyzed using the FlowJo V10 (TreeStar Inc., Ashland, Oreg., USA). The percentages of Foxp3^+ in CD4^+CD25^+ lymphocytes are indicated.\nThe cell suspension was incubated with cold hemolytic buffer for 1 min and then centrifuged. The pellet was suspended with RPMI medium and counted. 1×10^6 Cells of each group were stained with anti-CD3 (PE) and anti-CD4 (FITC) or anti-CD3 (PE) and anti-CD8 (FITC). All antibodies used were purchase from Miltenyi Biotec, Cambridge, USA. Samples were analyzed by flow cytometry using FACSCantoII (Becton Dickinson, San Jose, Calif., USA). Acquired data were analyzed using the FlowJo V10 (TreeStar Inc., Ashland, Oreg., USA). The percentages of CD4^+ or CD8^+ in CD3^+ lymphocytes are indicated."}, "[5]": {"test_system": "colorectal CT26 carcinoma cells", "experiment": "Subcutaneous syngeneic colorectal carcinoma model", "format": "in vivo, Balb/c mice"}, "[6]": {"test_system": "CD11c+, MHC II+ bone marrow DCs", "experiment": "Marker expression of bone marrow DCs with or without Poly I:C (flow cytometry)", "format": "cell-based, C57Bl6 mice", "settings": "60 h", "experimental": "DCs were obtained from the bone marrow of 6 to 8-week-old C57Bl6 mice. Briefly, femora and tibiae from mice were removed and stripped of muscles and tendons; both bone ends were cut and bone marrow was flushed out with RPMI 1640 medium using a 21-gauge needle and syringe. Cell clusters were dissociated by passing through a cell strainer and 0.45 M ammonium chloride was added for red cell lysis. After washing the cell suspension twice in RPMI 1640, 10×10^6 bone marrow cells per well were cultured in non-treated tissue-culture 6-well plates with 4 ml of complete medium (RPMI 1640 supplemented with 2 mM glutamine, 10,000 U/mL penicillin, 10 mg/mL streptomycin, 50 μM 2-mercaptoethanol, 10% heat-inactivated fetal calf serum with GM-CSF (50 ng/ml). Half of the medium was removed on day 2 and new medium supplemented with GM-CSF (100 ng/ml) and warmed at 37° C. was added. The culture medium was entirely discarded on day 3 and replaced by fresh warmed medium with GM-CSF (50 ng/ml). On day 6, non-adherent cells in the culture supernatant and loosely adherent cells harvested by gentle washing with PBS were pooled and used as the starting cell source for the experiments.\nFor murine cell analysis, these were stained in ice-cold PBS containing BSA (0.5%) and EDTA (2 mM) using appropriate antibody-fluorophore conjugates. Multiparameter analysis was performed on a BD FACSCanto II analyzer (BD Biosciences) and analyzed with FlowJo software (Tree Star). The following antibodies were used: anti-MHC Class II, anti-CD11c, anti-CD8a, anti-CD3e, anti-CD4, anti-CD86, anti-CD40, anti-CD80, Prior to acquisition, cells were resuspended in PBS/BSA 0.5%/EDTA (2 mM).\nDCs were centrifuged and washed once with MACS buffer. Cells (10^6) were resuspended in 45 μl of buffer and 5 μl of antibodies/fluorophore, CD11c APC, MHC II PE, CD80 FITC, CD86 VioBlue and CD40 PE. The samples were acquired in BD FACS Canto II using the FacsDiva software. The data were analyzed by using the FlowJo software."}, "[7]": {"settings": "100 μg/ml peptide + 12.5 μg/ml Poly I:C"}}, "note": "Positions of bridges follow the written chain, without caps; N, C: chain ends. No end group written: not given here."}
{"compound": "CC(C)Cn1cnc2c(N)nc3ccccc3c21", "note": "[Imiquimod, reference compound]", "values": [{"measurement": "antitumor activity (pulmonary nodules)", "setting": "[1]; i.p., 15 days after challenge", "result": "Antitumor activities of Rb9 and Imiquimod were the same"}]}
{"compound": "Poly I:C [reference compound]", "values": [{"measurement": "antitumor activity (pulmonary nodules)", "setting": "[1]; i.p., 15 days after challenge", "result": "strongly active"}, {"measurement": "antitumor activity of Poly I:C combined with Rb9", "setting": "[1]; i.p., 15 days after challenge", "result": "strongly active"}]}
{"compound": "[AARGETARATFAYWGQG], NH2 [Rb10A1]", "values": [{"measurement": "CD40 expression", "setting": "[2]", "result": "regulated CD40 expression"}, {"measurement": "expression of CD80 and CD86", "setting": "[2]; Rb9 mainly at 50 μg/ml", "result": "significantly stimulated"}, {"measurement": "TGF-beta in tumor-lysate stimulated CD11c+ cells from the spleen", "setting": "CD11c+ cells", "result": "markedly inhibited"}, {"measurement": "TGF-beta secreted by lymph node CD11c+ cells", "setting": "CD11c+ cells; vs vehicle (PBS) control cells stimulated by melanoma lysate", "result": "fully inhibited"}, {"measurement": "cytokine production in splenocytes (generally)", "setting": "splenocytes", "result": "downregulated"}, {"measurement": "IL-12 production in splenocytes", "setting": "splenocytes; no stimulus necessary", "result": "comparable in the three groups"}, {"measurement": "protective effect of peptide-stimulated DCs (lung melanotic nodules)", "setting": "[3]", "result": "also protective against melanoma in the metastatic model but less effectively than Rb9"}, {"measurement": "proportion of T-CD8+ to T-CD4+ cells", "setting": "[4]", "result": "T-CD8+ cells greatly predominated over T-CD4+ effector cells"}]}
{"compound": "[CAEATYWRRGGQAAGFTC], NH2 (C-C) (CAEATYWRRGGQAAGFTC-NH2; disulfide 1-18 (inferred)) [Scr1, cyclic scramble peptide of Rb9]", "values": [{"measurement": "activity against metastatic melanoma of scramble peptides", "setting": "[1]", "result": "activity similar to Rb9"}]}
{"compound": "[CARGETARATFAYWGQG], NH2 (CARGETARATFAYWGQG-NH2) [Rb10, linear peptide lacking terminal cysteine]", "values": [{"measurement": "subcutaneous tumor growth", "setting": "[5]; CT26 cells of high virulence (Argentina cell line), 5 alternate days", "result": "delayed"}, {"measurement": "survival time", "setting": "[5]; CT26 cells of high virulence, H-2^d syngeneic animals", "result": "prolonging the survival time"}]}
{"compound": "[CETWRGAATRGAFQAYGC], NH2 (C-C) (CETWRGAATRGAFQAYGC-NH2; disulfide 1-18 (inferred)) [Scr3, cyclic scramble peptide of Rb9]", "values": [{"measurement": "activity against metastatic melanoma of scramble peptides", "setting": "[1]", "result": "good negative control"}]}
{"compound": "[RATFAYWG], NH2 [Rb9-MID]", "values": [{"measurement": "CD40 expression over Poly I:C", "setting": "[6]; [7]", "result": "stimulated CD40 over Poly I:C much like Rb9"}, {"measurement": "expression of MHC II over Poly I:C and Rb9", "setting": "[6]; [7]", "result": "significantly increased"}, {"measurement": "expression of CD80", "setting": "[6]; 100 μg/ml peptide, with or without Poly I:C", "result": "similar"}]}
